Assay results from PubChem BioAssay AID1117334 (Cheminformatics & Chemogenomics Research Group (CCRG), …, 2015).
Activity calls are given as the source filed them. No rule for the calls is given here.

What follows are molecules tested on Colo320 viability, CellTiter-Glo luminescence (assay: cytotoxicity toward Colo320 cells – cell-based, CellTiter-Glo luminescence, IC50, dose response (AID 1117334)).

| Compound | IC50 |
| --- | --- |
| OCCN1CCN(CC/C=C2/c3ccccc3Sc3ccc(C(F)(F)F)cc32)CC1 | 2310 nM |
| Cn1cnc([N+](=O)[O-])c1Sc1ncnc2nc[nH]c12 | 10300 nM (inactive) |
| Cc1ccc([N+](=O)[O-])[c]2c1[O][Hg]2 | 935 nM |
| O=C1[O][Bi][O]c2ccccc21 | > 20000 nM (inactive) |
| O=C(O)C1(C(=O)O)CCC1.[NH2-].[NH2-].[Pt+2] | > 20000 nM (inactive) |
| CCCCCCCCCCCCCC[N+](C)(C)C | 2520 nM |
| CC(=O)[O][Hg][c]1ccccc1 | 1300 nM |
| O=Cc1ccc(O)c(O)c1O | 9080 nM (inactive) |
| CCN(CC)CCCC(C)Nc1c2ccc(Cl)cc2nc2ccc(OC)cc12 (stereo unspecified) | 8440 nM (inactive) |
| CO[C@@]12[C@H](COC(N)=O)C3=C(C(=O)C(C)=C(N)C3=O)N1C[C@@H]1N[C@@H]12 | 12600 nM (inactive) |
| CC(C)n1c(/C=C/[C@@H](O)C[C@@H](O)CC(=O)O)c(-c2ccc(F)cc2)c2ccccc21 | 13000 nM (inactive) |
